Assay results published in ChEMBL document CHEMBL5150076, “Discovery of Novel Orally Bioavailable Triazoles with Potent and Broad-Spectrum Antifungal Activity In Vitro and In Vivo” (J Med Chem, 2022).

Columns and labels:
[1] = Induction of hemolysis in rabbit RBC at 64 ug/ml incubated for 1 hr; assay type: toxicity, cell-based, Oryctolagus cuniculus, Erythrocyte; conditions: red blood cells, at 64 µg/mL, read-out: Activity
[2] = Induction of hemolysis in rabbit RBC at 16 ug/ml incubated for 1 hr; assay type: toxicity, cell-based, Oryctolagus cuniculus, Erythrocyte; conditions: red blood cells, at 16 µg/mL, read-out: Activity
in vitro = conditions: human, Caco-2 cells; at 64 µg/mL
[3] = Cytotoxicity against HUVEC assessed as cell viability at 64 ug/ml incubated for 24 hrs by CCK-8 assay; assay type: toxicity, cell-based; conditions: human, HUVEC cells, at 64 µg/mL, read-out: Activity
[4] = Induction of hemolysis in rabbit RBC at 32 ug/ml incubated for 1 hr; assay type: toxicity, cell-based, Oryctolagus cuniculus, Erythrocyte; conditions: red blood cells, at 32 µg/mL, read-out: Activity

C[C@@H]1[C@H](O)[C@@H](C)/C=C/C=C/C=C/C=C/C=C/C=C/C=C/[C@H](O[C@@H]2O[C@H](C)[C@@H](O)[C@H](N)[C@@H]2O)C[C@@H]2O[C@](O)(C[C@@H](O)C[C@@H](O)[C@H](O)CC[C@@H](O)C[C@@H](O)CC(=O)O[C@H]1C)C[C@H](O)[C@H]2C(=O)O [AMPHOTERICIN B]
hemolysis at 1 h, 64 ug/ml [1]: 102%
hemolysis at 1 h, 16 ug/ml [2]: 24.7%
viability at 24 h, 64 ug/ml (in vitro): 63.3%
viability at 24 h, 64 ug/ml [3]: 78.2%
hemolysis at 1 h, 32 ug/ml [4]: 65.2%
